Measured values reported in BindingDB's records for doi:10.1016/0960-894X(96)00183-7 (1996).

Biological target: alpha-L-fucosidase (Bos taurus)
Assay: Compound was tested for inhibition of alpha-fucosidase from bovine kidney.

- Ki: 23.4 µM
SMILES: O[C@H]1[C@H](O)[C@H](O)CN(Cc2ccccc2)C[C@H]1O [1-Benzyl-azepane-3,4,5,6-tetraol]
